Measurements: ChEMBL document CHEMBL1201862, “PubChem BioAssay data set” (2004)
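Grown in 96-well plates, cells were treated for 48 hours with each compound at five concentrations. Insufficient inhibition: endpoint recorded as highest concentration tested. Abbreviation: GI50, concentration required for 50% inhibition of growth.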 Calls of active or inactive are those of the source. Cut-off read from the data, not from the text of the source: active = GI50 up to about 1.1 µM and inactive = higher.

Experiments:
Test in all cases: NCI anticancer screen, dose series, 48 h
[1] = system: 786-0
[2] = system: A498
[3] = system: A549
[4] = system: ACHN
[5] = system: BT-549
[6] = system: CAKI-1
[7] = system: COLO 205
[8] = system: DU-145
[9] = system: EKVX
[10] = system: HCC 2998
[11] = system: HCT-116
[12] = system: HCT-15
[13] = system: HOP-62
[14] = system: HOP-92
[15] = system: HT-29
[16] = system: K562
[17] = system: KM12
[18] = system: LOX IMVI
[19] = system: M14
[20] = system: MCF7
[21] = system: MDA-MB-231
[22] = system: MDA-MB-435
[23] = system: MDA-N
[24] = system: MOLT-4
[25] = system: Malme-3M
[26] = system: NCI-H226
[27] = system: NCI-H23
[28] = system: NCI-H460
[29] = system: NCI-H522
[30] = system: NCI/ADR-RES
[31] = system: OVCAR-3
[32] = system: OVCAR-4
[33] = system: OVCAR-5
[34] = system: OVCAR-8
[35] = system: PC-3
[36] = system: RXF 393
[37] = system: SF-268
[38] = system: SF-295
[39] = system: SF-539
[40] = system: SK-MEL-28
[41] = system: SK-MEL-2
[42] = system: SK-MEL-5
[43] = system: SK-OV-3
[44] = system: SN12C
[45] = system: SNB-19
[46] = system: SNB-75
[47] = system: SW-620
[48] = system: T47D
[49] = system: TK-10
[50] = system: U-251
[51] = system: UACC-257
[52] = system: UACC-62
[53] = system: UO-31
[54] = system: CCRF-CEM
[55] = system: IGROV-1
[56] = system: RPMI-8226
[57] = system: HL-60
[58] = system: Hs-578T

Measured: GI50

CCOC(=O)CCC(NC(=O)c1ccc(NCc2ccc3nc(-c4ccccc4)c(Cl)nc3c2)c2ccccc12)C(=O)OCC (stereo not drawn)
inactive: [1] > 100 µM | [2] > 100 µM | [3] > 100 µM | [4] > 100 µM | [5] > 100 µM | [6] > 100 µM | [7] > 100 µM | [8] > 100 µM | [9] > 100 µM | [10] > 100 µM | [11] > 100 µM | [13] > 100 µM | [14] > 100 µM | [15] > 100 µM | [16] 6.46 µM | [17] > 100 µM | [18] > 100 µM | [19] > 100 µM | [20] 43.5 µM | [21] > 100 µM | [22] > 100 µM | [23] > 100 µM | [25] > 100 µM | [26] > 100 µM | [27] 58.1 µM | [28] > 100 µM | [29] 50.9 µM | [30] > 100 µM | [31] > 100 µM | [32] > 100 µM | [33] > 100 µM | [34] > 100 µM | [35] > 100 µM | [36] > 100 µM | [37] > 100 µM | [38] > 100 µM | [39] > 100 µM | [40] > 100 µM | [41] 72.9 µM | [42] 9.14 µM | [43] > 100 µM | [44] > 100 µM | [45] > 100 µM | [46] > 100 µM | [47] > 100 µM | [48] 13.9 µM | [49] > 100 µM | [50] > 100 µM | [51] 16.2 µM | [52] > 100 µM | [53] > 100 µM
active: [24] 0.977 µM
> 100 µM: [12]

Cc1nc2c(cc1C(=O)NN)c(=O)n(C)c(=O)n2C
> 100 µM: [12]
inactive: [1] > 100 µM | [3] > 100 µM | [4] > 100 µM | [5] > 100 µM | [6] > 100 µM | [54] > 100 µM | [7] > 100 µM | [8] > 100 µM | [9] > 100 µM | [10] > 100 µM | [11] > 100 µM | [13] > 100 µM | [15] > 100 µM | [55] > 100 µM | [16] > 100 µM | [17] > 100 µM | [19] > 100 µM | [20] > 100 µM | [21] > 100 µM | [22] > 100 µM | [23] > 100 µM | [24] > 100 µM | [26] > 100 µM | [27] > 100 µM | [28] > 100 µM | [30] > 100 µM | [31] > 100 µM | [32] > 100 µM | [33] > 100 µM | [34] > 100 µM | [35] > 100 µM | [56] > 100 µM | [36] > 100 µM | [38] > 100 µM | [40] > 100 µM | [41] > 100 µM | [42] > 100 µM | [43] > 100 µM | [44] > 100 µM | [45] > 100 µM | [46] > 100 µM | [47] > 100 µM | [48] > 100 µM | [49] > 100 µM | [50] > 100 µM | [51] > 100 µM | [52] > 100 µM | [53] > 100 µM

Cc1cc(O)c(C(C)C)cc1SC#N
17.3 µM: [12]
inactive: [2] 17.1 µM | [4] 16.2 µM | [5] 19.6 µM | [6] 15 µM | [54] 3.51 µM | [7] 19.4 µM | [8] 15.5 µM | [10] 17.2 µM | [57] 35.1 µM | [13] 21 µM | [14] 10.7 µM | [58] 20.5 µM | [55] 16.9 µM | [16] 6.3 µM | [17] 17.6 µM | [18] 11.9 µM | [20] 14.9 µM | [21] 18.5 µM | [22] 13.7 µM | [24] 3.15 µM | [25] 17.4 µM | [27] 17.2 µM | [28] 16.4 µM | [29] 5.46 µM | [30] 19.2 µM | [31] 15.5 µM | [32] 13.5 µM | [34] 17.7 µM | [35] 17.1 µM | [56] 2.16 µM | [36] 15.5 µM | [37] 19.3 µM | [38] 17.3 µM | [39] 15.6 µM | [40] 17.4 µM | [41] 18.2 µM | [42] 19.6 µM | [43] 21 µM | [46] 10.4 µM | [47] 17.3 µM | [48] 17.8 µM | [49] 16.9 µM | [50] 16.9 µM | [51] 16.6 µM | [52] 14.6 µM
